Laboratory results: article PMC10157847 (ACS Omega, 2023)

Each compound was assayed against T1, α-amylase from porcine pancreatic (Sus scrofa, UniProt P00690) (assay: In vitro α-amylase inhibition assay). Settings: not given.
T1 sequence (P00690 16-511): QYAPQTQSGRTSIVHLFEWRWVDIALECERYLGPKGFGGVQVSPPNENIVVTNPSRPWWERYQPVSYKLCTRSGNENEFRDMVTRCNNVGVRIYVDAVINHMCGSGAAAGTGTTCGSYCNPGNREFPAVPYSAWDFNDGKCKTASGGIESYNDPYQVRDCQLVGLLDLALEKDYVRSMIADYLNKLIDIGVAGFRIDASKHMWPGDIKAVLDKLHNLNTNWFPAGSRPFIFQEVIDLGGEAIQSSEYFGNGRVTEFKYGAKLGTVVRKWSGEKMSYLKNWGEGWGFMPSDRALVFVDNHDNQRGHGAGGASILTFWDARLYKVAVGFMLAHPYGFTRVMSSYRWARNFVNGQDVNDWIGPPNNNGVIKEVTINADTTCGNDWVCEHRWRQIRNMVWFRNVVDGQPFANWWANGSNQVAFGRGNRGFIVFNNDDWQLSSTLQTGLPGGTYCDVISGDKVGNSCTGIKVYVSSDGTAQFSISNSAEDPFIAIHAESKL
Format: biochemical

Row | SMILES | IC50
1 | Cc1ccc([N+](=O)[O-])cc1S(=O)(=O)N/N=C1\C(=O)Nc2ccc([N+](=O)[O-])cc21 [Compound 4] | 13.3 ± 0.3 µM
2 | O=C1Nc2ccc([N+](=O)[O-])cc2/C1=N/NS(=O)(=O)c1ccc([N+](=O)[O-])cc1 [Compound 5] | 13.2 ± 0.2 µM
3 | Cc1ccc([N+](=O)[O-])cc1S(=O)(=O)N/N=C1\C(=O)Nc2ccc(Cl)cc21 [Compound 15, (Z)-N'-(5-chloro-2-oxoindolin-3-ylidene)-2-methyl-5-nitrobenzenesulfonohydrazide] | 14.9 ± 0.2 µM

Second part, the compound after the results:

Row | IC50 | SMILES
4 | 13.2 ± 0.3 µM | Cc1ccc([N+](=O)[O-])cc1S(=O)(=O)N/N=C1\C(=O)Nc2ccccc21 [Compound 9]
5 | 13.2 ± 0.2 µM | O=C1Nc2ccccc2/C1=N/NS(=O)(=O)c1ccc([N+](=O)[O-])cc1 [Compound 10]

Same assay, conditions: read-out: IC50 ± SEM Alpha-amylase; porcine pancreatic α-amylase, starch

Row | IC50 | SMILES
6 | 12.3 ± 20 µM | O=C1Nc2ccc(Cl)cc2/C1=N/NS(=O)(=O)c1ccc([N+](=O)[O-])cc1 [Compound 16, (Z)-N'-(5-chloro-2-oxoindolin-3-ylidene)-4-nitrobenzenesulfonohydrazide]
